In publication PMC12073402, “A Selective MAP3K1 Inhibitor Facilitates Discovery of NPM1 as a Member of the Network” (Molecules, 2025):
Read-outs that look alike come from different tables or passages of the source.

Assays:
[1] = Pharmacokinetic studies, oral and intravenous dosing; assay type: in vivo, CD1 mice; conditions: for MRT inf: read-out: MRT 0-∞
Procedure: Next, we conducted pharmacokinetic (PK) studies with 51-106. Briefly, mice were dosed either intravenously (IV) or orally with 10 mg/kg of 51-106 and sampled at 0.083, 0.25, 0.5, 1, 2, 4, 8, and 24 h. […] This was accomplished by strategic placement of fluorine atoms at metabolically vulnerable sites on the molecule.
Pharmacokinetic studies (10 mg/kg oral and intravenous dosing) were performed following previously reported methods. Sample analysis was performed by liquid chromatography–tandem mass spectrometry (SCIEX QTRAP 4000 LC-MS/MS System). The pharmacokinetic parameters were determined using non-compartmental analyses module of WinNonlin 1.5.

[2] = system: TNFα-induced, MAP3K1-mediated IKKβ phosphorylation; assay: AlphaLISA phospho-IKKβ / total IKKβ assay in MiaPaCa2 cells; assay type: cell-based, Human; conditions: 20, 10, 5 μM, 30 min pretreatment, 10 ng/mL TNFα
Source text: MAP3K1 was previously shown to phosphorylate IKKβ [12] and regulate NF-κB signaling. Therefore, we validated the ability of 51-106 to inhibit MAP3K1 by probing the phosphorylation status of the known substrate, IKKβ, using an AlphaLISA assay. The pancreatic cancer cells (MiaPaCa2) were subjected to a 30-min pretreatment with varying concentrations of 51-106, followed by TNFα stimulation to induce IKKβ phosphorylation. Following a 15-min stimulation, the levels of phospho-IKKβ and total IKKβ were quantified. […] (Figure 3A). Next, we evaluated the efficacy of 51-106 in a cell-based reporter assay utilizing a HeLa cell line that specifically responds to TNFα induced expression of a luciferase reporter gene that is under the control of an NF-κB response element.
A suspension of MiaPaCa2 cells (2 × 10^5/well) in 200 μL media was plated in a flat, clear-bottomed, sterile, 48-well tissue culture plate (Cat# 353230; Corning; Corning, NY, USA). The cells were allowed to attach to the plate for ~8 h in a humidified 5% CO2 incubator at 37 °C. […] Phospho-IKKβ levels were normalized to total […], and fold change was calculated compared to DMSO treatment. […] The statistical significance between groups was determined via unpaired t-tests coupled with post hoc analysis with Welch’s correction.

[3] = system: HCT116 MAP3K1 KO cells; assay: PrestoBlue growth inhibition assay; assay type: cell-based
Source text: (§1) To investigate the target dependency of 51-106 activity, MAP3K1 was genetically knocked out (KO) in HCT116 cells using CRISPR-Cas9 technology (Gene Editing and Screening Core Facility, Memorial Sloan Kettering Cancer Center). The HCT116 cell line was chosen because it is predominantly diploid, allowing for a more predictable outcome when utilizing CRISPR technology compared with cell lines with aneuploidy. […] Western blot analysis confirmed the absence of MAP3K1 protein expression in KO cells compared to non-targeting control (NTC) MAP3K1 wild-type (WT) cells (Figure 3C). The MAP3K1 primary antibody used binds to residues 50 and 100 of the N-terminus of MAP3K1. HCT116 MAP3K1 WT and MAP3K1 KO cells were subjected to PrestoBlue growth inhibition assay with 51-106 treatment. […] Further optimization of 51-106 and/or the use of emerging methods such as DNA-encoded library based screens followed by machine learning (DEL-ML) along with a comprehensive suite of biophysical and biochemical screens should be employed to develop a MAP3K1 chemical probe.
(§2) A suspension of in 90 μL media was plated per well in clear, flat-bottomed, sterile, 96-well tissue culture plates (Cat# 12-565-438; Fisher Scientific, Waltham, MA, USA). The cells were allowed to adhere overnight in a humidified 5% CO2 incubator at 37 °C. Drug working solutions were prepared from 10 mM DMSO (Cat# BP231; Fisher Scientific) stocks. Drugs were added in 6 dilutions in triplicates. Ten μL of the working solution was added to each well in the plate to yield a final concentration of 20—0.63 μM drug in 1% DMSO. Blank DMSO controls were also included. […] Fluorescence (Ex 560, Em 590) was measured on a plate reader (Spectramax M5e; Molecular Devices) to determine T0. […] Fluorescence was measured on a plate reader. Wells with 1% DMSO were used to determine T100. % Growth was calculated as [(Fluorescence read of a well − T0)/(T100 − T0)] ∗ 100. The data were plotted using Prism V 9.1.0, and the IC50 values were determined using a four-parameter Logistic Curve Fitting function.

[4] = system: HCT116 MAP3K1 WT cells; assay: PrestoBlue growth inhibition assay; assay type: cell-based; conditions: Homo sapiens, HCT-116, 72 h
Source text: as §1, §2

[5] = mouse, in vivo, CD1 mice, 10 mg/kg, Intravenous
[6] = mouse, in vivo, CD1 mice, 10 mg/kg, Oral

In the case of Cn1cc(-c2cnc3ccc(NC(=O)Nc4ccc(F)c(C(F)(F)F)c4)cc3n2)cn1 [51-106, 1-(4-Fluoro-3-(trifluoromethyl)phenyl)-3-(3-(1-methyl-1H-pyrazol-4-yl)quinoxalin-6-yl)urea], the “improvement of oral bioavailability” value ([1]; 51-106 compared to analog 84) is reported as ~ 3.5 fold, the “improvement of t1/2 in mice” value ([1]; 51-106 compared to analog 84) is reported as ~ 1.4 fold and the bioavailability ([1]; CD1, mouse, in vivo, po, 10 mg/kg, CD1 mice, 10 mg/kg, Oral, read-out: Bioavailability (%F)) is reported as 62.3%. For the same compound, the “Bioavailability (%F)” value ([1]; CD1 mice, 10 mg/kg, Oral) was about 62%, the AUC(0-inf) [1, 5] was 9120 ± 755 ng·h/mL and the AUC(0-t) [1, 5] was 8960 ± 812 ng·h/mL. It also gave a Cmax [1, 5] of 4380 ± 447 ng/mL, a half-life [1, 5] of 1.7 ± 0.3 h and an MRT inf [1, 5] of 2.2 ± 0.3 h. The Vd ([1]; mouse, in vivo, CD1 mice, 10 mg/kg, Intravenous, read-out: Vss) was 2.5 ± 0.3 L/kg, the AUC(0-inf) [1, 6] was 5680 ± 1930 ng·h/mL and the AUC(0-t) [1, 6] was 4580 ± 2500 ng·h/mL. The Cmax [1, 6] was 689 ± 190 ng/mL, the Tmax [1, 6] was 2.7 h and the half-life [1, 6] was 3.5 h. The MRT inf [1, 6] was 6.4 ± 1.5 h, the “TNFα-induced, MAP3K1-mediated IKKβ phosphorylation (phospho-IKKβ / total IKKβ)” value [2] was “inhibits TNFα-induced, MAP3K1-mediated IKKβ phosphorylation in a dose-dependent manner” and the “increase in IC50 in MAP3K1 KO cells” value ([3]; HCT116 MAP3K1 KO versus WT) was 5 fold. For the same compound, the IC50 ([3]; Homo sapiens, HCT-116, 72 h, HCT116 MAP3K1 KO, 72 h, PrestoBlue) was about 8.9 µM and the IC50 [4] was about 1.8 µM.
